Tests used:
Type in all cases: in vivo
[1] = tested on: redroot pigweed (Amaranthus retroflexus); experiment: Test G Post-Emergence Protocol; details: Amaranthus retroflexus, post-emergence, 312 h, read-out: Pigweed, Redroot damage rating; for pest or weed control at 15.625 g/ha: 15.625 g ai/ha, evaluated after 13 days (100=total damage to plant; 0=no damage to plant); for pest or weed control at 62.5 g/ha: 62.5 g ai/ha; for pest or weed control at 62.5 g/ha / pest or weed control at 250 g/ha: evaluated after 13 days, 100=total damage to plant, 0=no damage to plant; for pest or weed control at 250 g/ha: 250 g ai/ha
How it was run: (§1)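 Pot-grown seedlings, 8 days old, raised in a glasshouse at 24/16 °C day/night with 14 h light and 65% humidity, were sprayed post-emergence with test compound in acetone/water (50:50) plus 0.5% Tween 20 at 15.625, 62.5 or 250 g/ha. Damage was scored visually 13 days later on a 0–100 scale (100 = total damage).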

[2] = tested on: giant foxtail (Setaria faberi); experiment: Test G Post-Emergence Protocol; details: Setaria faberi, post-emergence, 312 h, read-out: Foxtail, Giant damage rating; for pest or weed control at 15.625 g/ha: 15.625 g ai/ha, evaluated after 13 days (100=total damage to plant; 0=no damage to plant); for pest or weed control at 62.5 g/ha: 62.5 g ai/ha
How it was run: as §1

[3] = tested on: velvetleaf (Abutilon theophrasti); experiment: Test G Post-Emergence Protocol; details: Abutilon theophrasti, post-emergence, 312 h, read-out: Velvetleaf damage rating; for pest or weed control at 15.625 g/ha: 15.625 g ai/ha, evaluated after 13 days (100=total damage to plant; 0=no damage to plant); for pest or weed control at 62.5 g/ha: 62.5 g ai/ha; for pest or weed control at 62.5 g/ha / pest or weed control at 250 g/ha: evaluated after 13 days, 100=total damage to plant, 0=no damage to plant; for pest or weed control at 250 g/ha: 250 g ai/ha
How it was run: as §1

corn (Zea mays) [4] = experiment: Test G Post-Emergence Protocol; details: Zea mays, post-emergence, 312 h, read-out: Corn damage rating; for plant injury at 15.625 g/ha: 15.625 g ai/ha, evaluated after 13 days (100=total damage to plant; 0=no damage to plant); for plant injury at 62.5 g/ha: 62.5 g ai/ha; for plant injury at 62.5 g/ha / plant injury at 250 g/ha: evaluated after 13 days, 100=total damage to plant, 0=no damage to plant; for plant injury at 250 g/ha: 250 g ai/ha
How it was run: as §1

[5] = tested on: barnyardgrass (Echinochloa crus-galli); experiment: Test G Post-Emergence Protocol; details: Echinochloa crus-galli, post-emergence, 312 h, read-out: Barnyardgrass damage rating; for pest or weed control at 15.625 g/ha: 15.625 g ai/ha, evaluated after 13 days (100=total damage to plant; 0=no damage to plant); for pest or weed control at 62.5 g/ha: 62.5 g ai/ha; for pest or weed control at 62.5 g/ha / pest or weed control at 250 g/ha: evaluated after 13 days, 100=total damage to plant, 0=no damage to plant; for pest or weed control at 250 g/ha: 250 g ai/ha
How it was run: as §1

[6] = tested on: ivy-leaved morning glory (Ipomoea hederacea); experiment: Test G Post-Emergence Protocol; details: Ipomoea, post-emergence, 312 h, read-out: Morningglory, Ivy-leaved damage rating; for pest or weed control at 15.625 g/ha: 15.625 g ai/ha, evaluated after 13 days (100=total damage to plant; 0=no damage to plant); for pest or weed control at 62.5 g/ha: 62.5 g ai/ha; for pest or weed control at 62.5 g/ha / pest or weed control at 250 g/ha: evaluated after 13 days, 100=total damage to plant, 0=no damage to plant; for pest or weed control at 250 g/ha: 250 g ai/ha
How it was run: as §1

[7] = tested on: redroot pigweed (Amaranthus retroflexus); experiment: Test G Pre-Emergence Protocol; details: Amaranthus retroflexus, pre-emergence, 312 h, evaluated after 13 days; for pest or weed control at 15.625 g/ha: 15.625 g ai/ha; for pest or weed control at 15.625 g/ha / pest or weed control at 250 g/ha: read-out: Pigweed, Redroot damage rating (100=total damage to plant; 0=no damage to plant); for pest or weed control at 62.5 g/ha: 62.5 g ai/ha, 100=total damage to plant, 0=no damage to plant, read-out: Pigweed, Redroot damage rating; for pest or weed control at 250 g/ha: 250 g ai/ha
How it was run: (§2)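 Pre-emergence spray, 15.625/62.5/250 g/ha, vehicle acetone:water 50:50 + 0.5% Tween 20, applied 1 d after sowing. Glasshouse 24/16° C, 14 h light, 65% RH, watered twice daily. Visual damage rating at 13 d, 0–100 scale.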

[8] = tested on: giant foxtail (Setaria faberi); experiment: Test G Pre-Emergence Protocol; details: Setaria faberi, pre-emergence, 312 h, evaluated after 13 days; for pest or weed control at 15.625 g/ha: 15.625 g ai/ha; for pest or weed control at 15.625 g/ha / pest or weed control at 250 g/ha: read-out: Foxtail, Giant damage rating (100=total damage to plant; 0=no damage to plant); for pest or weed control at 62.5 g/ha: 62.5 g ai/ha, 100=total damage to plant, 0=no damage to plant, read-out: Foxtail, Giant damage rating; for pest or weed control at 250 g/ha: 250 g ai/ha
How it was run: as §2

[9] = tested on: velvetleaf (Abutilon theophrasti); experiment: Test G Pre-Emergence Protocol; details: Abutilon theophrasti, pre-emergence, 312 h, evaluated after 13 days; for pest or weed control at 15.625 g/ha: 15.625 g ai/ha; for pest or weed control at 15.625 g/ha / pest or weed control at 250 g/ha: read-out: Velvetleaf damage rating (100=total damage to plant; 0=no damage to plant); for pest or weed control at 62.5 g/ha: 62.5 g ai/ha, 100=total damage to plant, 0=no damage to plant, read-out: Velvetleaf damage rating; for pest or weed control at 250 g/ha: 250 g ai/ha
How it was run: as §2

corn (Zea mays) [10] = experiment: Test G Pre-Emergence Protocol; details: Zea mays, pre-emergence, 312 h, evaluated after 13 days; for plant injury at 15.625 g/ha: 15.625 g ai/ha; for plant injury at 15.625 g/ha / plant injury at 250 g/ha: read-out: Corn damage rating (100=total damage to plant; 0=no damage to plant); for plant injury at 62.5 g/ha: 62.5 g ai/ha, 100=total damage to plant, 0=no damage to plant, read-out: Corn damage rating; for plant injury at 250 g/ha: 250 g ai/ha
How it was run: as §2

[11] = tested on: barnyardgrass (Echinochloa crus-galli); experiment: Test G Pre-Emergence Protocol; details: Echinochloa crus-galli, pre-emergence, 312 h, evaluated after 13 days; for pest or weed control at 15.625 g/ha: 15.625 g ai/ha; for pest or weed control at 15.625 g/ha / pest or weed control at 250 g/ha: read-out: Barnyardgrass damage rating (100=total damage to plant; 0=no damage to plant); for pest or weed control at 62.5 g/ha: 62.5 g ai/ha, 100=total damage to plant, 0=no damage to plant, read-out: Barnyardgrass damage rating; for pest or weed control at 250 g/ha: 250 g ai/ha
How it was run: as §2

[12] = tested on: ivy-leaved morning glory (Ipomoea hederacea); experiment: Test G Pre-Emergence Protocol; details: Ipomoea, pre-emergence, 312 h, evaluated after 13 days; for pest or weed control at 15.625 g/ha: 15.625 g ai/ha; for pest or weed control at 15.625 g/ha / pest or weed control at 250 g/ha: read-out: Morningglory, Ivy-leaved damage rating (100=total damage to plant; 0=no damage to plant); for pest or weed control at 62.5 g/ha: 62.5 g ai/ha, 100=total damage to plant, 0=no damage to plant, read-out: Morningglory, Ivy-leaved damage rating; for pest or weed control at 250 g/ha: 250 g ai/ha
How it was run: as §2

[13] = evaluated after 13 days, 100=total damage to plant, 0=no damage to plant

Row | Structure (SMILES) | pest or weed control at 15.625 g/ha [1] | pest or weed control at 62.5 g/ha [1] | pest or weed control at 250 g/ha [1] | pest or weed control at 15.625 g/ha [2] | pest or weed control at 62.5 g/ha [2, 13] | pest or weed control at 15.625 g/ha [3] | pest or weed control at 62.5 g/ha [3] | pest or weed control at 250 g/ha [3] | plant injury at 15.625 g/ha (corn (Zea mays) [4]) | plant injury at 62.5 g/ha (corn (Zea mays) [4]) | plant injury at 250 g/ha (corn (Zea mays) [4]) | pest or weed control at 15.625 g/ha [5] | pest or weed control at 62.5 g/ha [5] | pest or weed control at 250 g/ha [5] | pest or weed control at 15.625 g/ha [6] | pest or weed control at 62.5 g/ha [6] | pest or weed control at 250 g/ha [6] | pest or weed control at 15.625 g/ha [7] | pest or weed control at 62.5 g/ha [7] | pest or weed control at 250 g/ha [7] | further results
1 | CN1C[C@H](c2ccnc(C(C)(C)C)n2)[C@@H](C(=O)Nc2ccc(F)c(F)c2F)C1=O (racemic) [Compound 1770] | 0% | 20% | 40% | 0% | 20% | 0% | 10% | 30% | 0% | 0% | 0% | 0% | 0% | 70% | 0% | 10% | 20% | 0% | 0% | 10% | pest or weed control at 250 g/ha ([2]; 250 g ai/ha, evaluated after 13 days, 100=total damage to plant, 0=no damage to plant): 70%; pest or weed control at 15.625 g/ha [8]: 0%; pest or weed control at 62.5 g/ha [8]: 50%; pest or weed control at 250 g/ha [8]: 80%; pest or weed control at 15.625 g/ha [9]: 0%; pest or weed control at 62.5 g/ha [9]: 0%; pest or weed control at 250 g/ha [9]: 20%; plant injury at 15.625 g/ha (corn (Zea mays) [10]): 0%; plant injury at 62.5 g/ha (corn (Zea mays) [10]): 0%; plant injury at 250 g/ha (corn (Zea mays) [10]): 0%; pest or weed control at 15.625 g/ha [11]: 0%; pest or weed control at 62.5 g/ha [11]: 20%; pest or weed control at 250 g/ha [11]: 70%; pest or weed control at 15.625 g/ha [12]: 0%; pest or weed control at 62.5 g/ha [12]: 0%; pest or weed control at 250 g/ha [12]: 30%
2 | CSc1ncccc1NC(=O)[C@H]1C(=O)N(C)C[C@@H]1c1ccc(C(F)(F)F)cc1 (racemic) [Compound 1786] | 0% | 0% | 20% | 0% | 10% | 0% | 0% | 30% | 0% | 0% | 0% | 0% | 0% | 0% | 0% | 0% | 0% | 0% | 0% | 40% | pest or weed control at 15.625 g/ha [8]: 0%; pest or weed control at 62.5 g/ha [8]: 0%; pest or weed control at 250 g/ha [8]: 80%; pest or weed control at 15.625 g/ha [9]: 0%; pest or weed control at 62.5 g/ha [9]: 0%; pest or weed control at 250 g/ha [9]: 30%; plant injury at 15.625 g/ha (corn (Zea mays) [10]): 0%; plant injury at 62.5 g/ha (corn (Zea mays) [10]): 0%; plant injury at 250 g/ha (corn (Zea mays) [10]): 0%; pest or weed control at 15.625 g/ha [11]: 0%; pest or weed control at 62.5 g/ha [11]: 0%; pest or weed control at 250 g/ha [11]: 20%; pest or weed control at 15.625 g/ha [12]: 0%; pest or weed control at 62.5 g/ha [12]: 0%; pest or weed control at 250 g/ha [12]: 0%
